Experimental findings from ChEMBL document CHEMBL1201862, “PubChem BioAssay data set” (2004) are described below.

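These data come from cells grown in 96-well plates and exposed to compound for 48 hours at five concentrations. GI50 is the concentration that inhibits growth by half.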 Active and inactive are the calls of the source. No stated cut-off is given here; in the data, active = GI50 up to about 1.1 µM and inactive = higher.

Test systems include 786-0; ACHN; DMS-273; EKVX; HL-60; HOP-92; IGROV-1; NCI-H460; NCI-H522; OVCAR-4; OVCAR-5; SNB-75; SR; TK-10; U-251; UACC-257; UACC-62; BT-549; MCF7; T47D.
Holding throughout (experiment): growth of human tumour cells (NCI), 48 h

Turning to `COC(=O)Cc1nc2ccccc2o1`, the GI50 in the assay with 786-0 is > 100 µM (inactive); in the assay with ACHN, 41.7 µM (inactive); in the assay on DMS-273 it was 36.4 µM (inactive); in the assay with EKVX, > 100 µM (inactive); with HL-60, 12.5 µM (inactive); in the assay with HOP-92 it was > 100 µM (inactive). Also, the GI50 in the assay on IGROV-1 is > 100 µM (inactive); with NCI-H460, 80.5 µM (inactive); with NCI-H522, 40.1 µM (inactive); with OVCAR-4, > 100 µM (inactive); with OVCAR-5, 45.2 µM (inactive); in the assay with SNB-75, > 100 µM (inactive). The GI50 in the assay with SR is > 100 µM (inactive); with TK-10, 46.2 µM (inactive); with U-251, 83.8 µM (inactive); with UACC-257 it was 47 µM (inactive); in the assay with UACC-62, 20.2 µM (inactive).

As to `c1ccc(C2OC3(CCC[C@H]4C[C@H]43)O[C@H]2c2ccccc2)cc1` (some centres not stated), the GI50 was 57 µM (inactive) in the assay on 786-0; 30.3 µM (inactive) in the assay on ACHN; 49.4 µM (inactive) in the assay on DMS-273; 32.8 µM (inactive) in the assay on EKVX; 19.8 µM (inactive) in the assay on HL-60; 27.3 µM (inactive) in the assay on HOP-92. For the same compound, the GI50 in the assay with IGROV-1 is > 100 µM (inactive); in the assay on NCI-H460, 39.8 µM (inactive); in the assay with NCI-H522, 22.7 µM (inactive); in the assay with OVCAR-4 it was 53.2 µM (inactive); in the assay with OVCAR-5, 60.8 µM (inactive); in the assay with SNB-75, 26.5 µM (inactive). The GI50 in the assay on SR is 27.2 µM (inactive); with TK-10, > 100 µM (inactive); in the assay on U-251, 41.1 µM (inactive); in the assay with UACC-257, 30.9 µM (inactive); in the assay with UACC-62 it was 57.3 µM (inactive).

For `CCCCCCCC(=O)OCC(C[As](=O)(O)O)OC(=O)CCCCCCC` (configuration not stated), the GI50 is 17.2 µM (inactive) in the assay on 786-0; 16.9 µM (inactive) in the assay on ACHN; 14.1 µM (inactive) in the assay with DMS-273; 18.3 µM (inactive) with EKVX; 5.56 µM (inactive) with HL-60; 12.7 µM (inactive) in the assay on HOP-92. Further, the GI50 was 13.8 µM (inactive) with IGROV-1; 13.3 µM (inactive) with NCI-H522; 19.7 µM (inactive) with OVCAR-4; 15.7 µM (inactive) in the assay with SNB-75; 16.6 µM (inactive) in the assay with SR; 15 µM (inactive) in the assay with U-251. Moreover, the GI50 with UACC-257 is 14.8 µM (inactive); in the assay on UACC-62 it was 13.8 µM (inactive).

Turning to `C[n+]1c2ccccc2c(NC(CCC(N)=O)C(=O)O)c2ccccc21` (configuration not stated), the GI50 in the assay with 786-0, with ACHN, with DMS-273, with EKVX, in the assay with HL-60 and with HOP-92 was > 100 µM (inactive) throughout. Moreover, the GI50 in the assay on IGROV-1, in the assay on NCI-H460, with NCI-H522, with OVCAR-4, in the assay with OVCAR-5 and in the assay on SNB-75 was > 100 µM (inactive) each time. Further, the GI50 with SR, in the assay with TK-10, in the assay with U-251, with UACC-257 and with UACC-62 was > 100 µM (inactive) in each case.

For `Cc1ccccc1C1OC(=O)c2ccc3ccccc3c21` (configuration not stated), the GI50 is 4.57 µM (inactive) in the assay with 786-0; 4.63 µM (inactive) in the assay on ACHN; 3.5 µM (inactive) with DMS-273; 7.4 µM (inactive) in the assay with EKVX; 2.79 µM (inactive) with HL-60; 10.8 µM (inactive) with HOP-92. Besides, the GI50 in the assay with IGROV-1 is 5 µM (inactive); in the assay on NCI-H460, 3.23 µM (inactive); with NCI-H522, 1.82 µM (inactive); in the assay on OVCAR-4 it was 9.51 µM (inactive); with OVCAR-5 it was 8.57 µM (inactive); with SNB-75 it was 3.55 µM (inactive). The GI50 with SR was 0.769 µM (active); in the assay on TK-10 it was 7 µM (inactive); in the assay on U-251, 3.57 µM (inactive); in the assay on UACC-257, 4.62 µM (inactive); with UACC-62 it was 2.94 µM (inactive).

Turning to `CSc1ccc(N2C(=O)C3c4[nH]c5ccccc5c4C4CCC(C(C)(C)C)CC4C3C2=O)cc1` (configuration not stated), the GI50 in the assay on 786-0 was 14.9 µM (inactive); in the assay with ACHN, 13.9 µM (inactive); in the assay with DMS-273, 10.6 µM (inactive); in the assay on EKVX it was 20.7 µM (inactive); with HL-60 it was 13.7 µM (inactive); in the assay with HOP-92 it was 11.3 µM (inactive). For the same compound, the GI50 with IGROV-1 is 13.8 µM (inactive); with NCI-H460 it was 14.1 µM (inactive); with NCI-H522, 16.2 µM (inactive); in the assay with OVCAR-4, 10.3 µM (inactive); with OVCAR-5 it was 48.3 µM (inactive); in the assay with SNB-75, 18.5 µM (inactive). The GI50 was 10.2 µM (inactive) in the assay on SR; 19.5 µM (inactive) in the assay with TK-10; 16.4 µM (inactive) in the assay with U-251; 46.8 µM (inactive) with UACC-257; 13.8 µM (inactive) in the assay with UACC-62.

As for `CC1C=CC(O)[C@]2(CO)CC3(CCC12)OCCO3` (some centres not stated), the GI50 in the assay with 786-0, in the assay with ACHN, in the assay on DMS-273, in the assay with EKVX, in the assay on HL-60 and in the assay with HOP-92 was > 100 µM (inactive) throughout. In addition, the GI50 in the assay on IGROV-1, in the assay on NCI-H460, in the assay with NCI-H522, in the assay on OVCAR-4, in the assay with OVCAR-5 and in the assay with SNB-75 was > 100 µM (inactive) in each case. The GI50 in the assay with SR, with TK-10, with U-251, in the assay on UACC-257 and in the assay with UACC-62 was > 100 µM (inactive) throughout.

Take `O=S1OC(c2ccccc2)(c2ccccc2)C(c2ccccc2)(c2ccccc2)O1`: the GI50 in the assay with 786-0 was > 100 µM (inactive); with ACHN, 41.7 µM (inactive); in the assay on DMS-273, > 100 µM (inactive); in the assay on EKVX, 48.3 µM (inactive); in the assay with HL-60 it was 7.96 µM (inactive); with HOP-92, 7.74 µM (inactive). Besides, the GI50 in the assay on IGROV-1 was > 100 µM (inactive); in the assay on NCI-H460, > 30.1 µM (inactive); with NCI-H522, > 50.1 µM (inactive); in the assay on OVCAR-4, 45.2 µM (inactive); in the assay on OVCAR-5, > 100 µM (inactive); with SNB-75, > 56.4 µM (inactive). Moreover, the GI50 is 8.93 µM (inactive) with SR; > 100 µM (inactive) in the assay with TK-10; 25.1 µM (inactive) in the assay on U-251; 46.6 µM (inactive) with UACC-257; > 100 µM (inactive) in the assay with UACC-62.

Turning to `N=C(N)NS(=O)(=O)c1ccc(NC(=O)c2cccc3c(O)c4ccccc4nc23)cc1`, the GI50 is 58.1 µM (inactive) in the assay with 786-0; > 100 µM (inactive) with ACHN; > 100 µM (inactive) in the assay on BT-549; > 100 µM (inactive) in the assay with DMS-273; > 100 µM (inactive) in the assay on EKVX; > 100 µM (inactive) in the assay on HL-60. The GI50 in the assay on HOP-92 is 56.2 µM (inactive); in the assay with IGROV-1, 81.5 µM (inactive); in the assay with MCF7, > 100 µM (inactive); in the assay on NCI-H460, > 100 µM (inactive); in the assay with NCI-H522 it was > 100 µM (inactive); in the assay with OVCAR-4, > 100 µM (inactive). In addition, the GI50 in the assay on OVCAR-5 was 99.3 µM (inactive); in the assay with SNB-75, 31.8 µM (inactive); in the assay with SR, > 74.8 µM (inactive); in the assay with T47D, > 100 µM (inactive); in the assay with TK-10, 54.8 µM (inactive); in the assay with U-251, 48 µM (inactive). In addition, the GI50 in the assay on UACC-257 and with UACC-62 was > 100 µM (inactive) in each case.

For `Cc1cc(C)c2c(c1)N[S@@](=O)S2`, the GI50 in the assay on 786-0 was 15 µM (inactive); in the assay with ACHN, 23.4 µM (inactive); in the assay on DMS-273 it was 17.2 µM (inactive); in the assay with EKVX, 51.5 µM (inactive); with HL-60, 26.4 µM (inactive); in the assay on HOP-92, 45.8 µM (inactive). In addition, the GI50 with IGROV-1 was 19.4 µM (inactive); in the assay on NCI-H460, 21.8 µM (inactive); with NCI-H522, 17.4 µM (inactive); with OVCAR-4, 23.1 µM (inactive); in the assay with OVCAR-5, 30.6 µM (inactive); in the assay on SNB-75 it was 32.5 µM (inactive). Also, the GI50 is 36.2 µM (inactive) in the assay on SR; 30.4 µM (inactive) in the assay on TK-10; 16.8 µM (inactive) with U-251; 16.6 µM (inactive) in the assay with UACC-257; 18.6 µM (inactive) in the assay on UACC-62.

As for `Nc1c2ccccc2nc2nccnc12`, the GI50 was > 100 µM (inactive) with 786-0; > 100 µM (inactive) in the assay with ACHN; > 100 µM (inactive) with DMS-273; 38.4 µM (inactive) in the assay with EKVX; > 100 µM (inactive) in the assay on HL-60; > 100 µM (inactive) with HOP-92. In addition, the GI50 with IGROV-1 is 60.4 µM (inactive); in the assay with NCI-H460 it was > 100 µM (inactive); in the assay with NCI-H522, > 100 µM (inactive); with OVCAR-4, > 100 µM (inactive); in the assay on OVCAR-5 it was > 100 µM (inactive); in the assay on SNB-75 it was > 100 µM (inactive). In addition, the GI50 with SR, in the assay on TK-10, in the assay with U-251, in the assay with UACC-257 and in the assay on UACC-62 was > 100 µM (inactive) throughout.
